Experimental data published in patent US4801613A, “Bradykinin antagonist peptides” (Nova Technology Limited Partnership, priority 1987, dated 1989).
Where two headings read alike, the source gives them in different places. Each block holds one compound with its values, some of them ahead of it. Non-standard residues stand in square brackets, D forms with d. Residues, ends and D or L forms follow the SMILES beside them. No end group written: not given here. 2Thi = N[C@@H](Cc1cccs1)C(=O)O

How the values were obtained:
kininases [1] = conditions: anesthetized rat; single pass in the pulmonary circulation
kininases [2] = conditions: rat, in vivo
isolated rat uterus = format: cell-based
Description: (§1) The bradykinin antagonists were assayed on isolated rat uterus in natural or induced estrus and on guinea pig ileum, according to the commonly accepted assay methods for bradykinin and related kinins as described by Trautschold (Handbook of Expt. Pharmacol. Vol. 25, Springer Verlag, pp 53-55, 1970) for inhibition of the myotropic activity of bradykinin. The inhibition potencies, as determined according to the commonly accepted manner described by Schild for antagonists of biologically active compounds (Br. J. Pharmacol. 2:189, 1947), are determined on isolated rat uterus (RUT) and isolated guinea pig ileum (GPI). In the assays, a dose-response curve is determined for the reference substance bradykinin. The dose of bradykinin which produced a half maximal contraction of tissue is the ED50 dose. An amount of bradykinin equivalent to twice the ED50 dose is administered to the tissue 30 seconds after the start of incubation of the tissue with a dose of antagonist. Doses of antagonist are increased in this protocol until pre-incubation with a dose of antagonist reduces the contraction in response to the double ED50 dose of bradykinin to response of a single ED50 dose of bradykinin. The pA2 value represents the negative logarithm of the molar concentration of antagonist necessary to reduce the response of a double ED50 dose of bradykinin to that of an ED50 dose. One unit of pA2 value represents an order of magnitude change in potency. For comparison, the negative log of the dose of BK, the dose which causes half maximal contraction of the tissues, is commonly known as the pD2 value. The pD2 value for bradykinin is 7.9 on the rat uterus and 7.4 on the guinea pig ileum.

[3] = tested on: isolated guinea pig ileum; format: cell-based
Description: as §1
(§2) In each case, as shown, the BK-related antagonists inhibited contractions produced by BK-related agonists, but had no effect on the non-kinin myotropic peptide substances. The inhibition potencies are listed as pA2 values as described above.

kininases [4] = conditions: anesthetized rat; Roblero, Ryan and Stewart 1973; cited from earlier work
[5] = Ferreira & Vane 1967; cited from earlier work
guinea pig ileum = format: cell-based
Description: as §1, §2

Compound: N=C(N)NCCC[C@H](NC(=O)[C@H](Cc1cccs1)NC(=O)[C@@H]1CCCN1C(=O)[C@H](CO)NC(=O)[C@H](Cc1cccs1)NC(=O)CNC(=O)[C@@H]1CCCN1C(=O)[C@@H]1CCCN1C(=O)[C@H](CCCNC(=N)N)NC(=O)[C@H](CCCCN)NC(=O)[C@@H](N)CCCCN)C(=O)O [Lys--Lys--Thi^5,8 --BK] (H-KKRPPG[2Thi]SP[2Thi]R-OH)
% DESTRUCTION (kininases [1]): 0%

Compound: RPPGFSPFR [Bradykinin (BK), Arg-Pro-Pro-Gly-Phe-Ser-Pro-Phe-Arg]
pD2 value (negative log of dose causing half maximal contraction) (isolated rat uterus; rat uterus): 7.9 | pD2 value (negative log of dose causing half maximal contraction) ([3]; guinea pig ileum): 7.4 | destruction on a single passage through the pulmonary circulation (kininases [4]): 98-99% | half life in the systemic circulation [5]: less than 30 seconds | % DESTRUCTION (kininases [1]): 98%

Compound: N=C(N)NCCC[C@@H](N)C(=O)N[C@@H](CCCNC(=N)N)C(=O)N1CCC[C@H]1C(=O)N1CCC[C@H]1C(=O)NCC(=O)N[C@@H](Cc1ccccc1)C(=O)N[C@@H](CO)C(=O)N[C@H](Cc1ccccc1)C(=O)N[C@@H](Cc1ccccc1)C(=O)N[C@@H](CCCNC(=N)N)C(=O)O [Example 10, DArg-Arg-Pro-Pro-Gly-Phe-Ser-DPhe-Phe-Arg]
RUT AG = agonist potency relative to BK = 100 (isolated rat uterus): 0.1% | GUINEA PIG ILEUM KAL (pA2) (guinea pig ileum; agonist kallidin (Lys-BK)): 6.0 | GUINEA PIG ILEUM MK--BK (pA2) (guinea pig ileum; agonist methionyl-lysyl-BK): 6.3 | GPI pA2 [3]: 5.0 | GUINEA PIG ILEUM BK (pA2) [3]: 5.6

Compound: N=C(N)NCCC[C@H](NC(=O)[C@H](Cc1ccccc1)NC(=O)[C@@H](Cc1ccccc1)NC(=O)[C@H](CO)NC(=O)[C@H](Cc1ccccc1)NC(=O)CNC(=O)[C@@H]1CCCN1C(=O)[C@@H]1CCCN1C(=O)[C@@H](N)CCCNC(=N)N)C(=O)O [Example 1, Arg-Pro-Pro-Gly-Phe-Ser-DPhe-Phe-Arg] (H-RPPGFS[dF]FR-OH)
RUT AG = agonist potency relative to BK = 100 (isolated rat uterus): 1% | GUINEA PIG ILEUM KAL (pA2) (guinea pig ileum): 5.6 | GUINEA PIG ILEUM MK--BK (pA2) (guinea pig ileum): 6.0 | GUINEA PIG ILEUM BK (pA2) [3]: 5.0

Compound: N=C(N)NCCC[C@H](NC(=O)[C@H](Cc1cccs1)NC(=O)[C@@H]1CCCN1C(=O)[C@H](CO)NC(=O)[C@H](Cc1cccs1)NC(=O)CNC(=O)[C@@H]1CCCN1C(=O)[C@@H]1CCCN1C(=O)[C@@H](N)CCCNC(=N)N)C(=O)O [Thi^5,8 --BK] (H-RPPG[2Thi]SP[2Thi]R-OH)
% DESTRUCTION (kininases [1]): 95%

Compound: N=C(N)NCCC[C@@H](N)C(=O)N[C@@H](CCCNC(=N)N)C(=O)N1CCC[C@H]1C(=O)N1CCC[C@H]1C(=O)NCC(=O)N[C@@H](Cc1cccs1)C(=O)N[C@@H](CO)C(=O)N[C@H](Cc1ccccc1)C(=O)N[C@@H](Cc1cccs1)C(=O)N[C@@H](CCCNC(=N)N)C(=O)O [Example 15, DArg-Arg-Pro-Pro-Gly-Thi-Ser-DPhe-Thi-Arg] (H-[dR]RPPG[2Thi]S[dF][2Thi]R-OH)
RUT pA2 (isolated rat uterus): 5.2 | pA2/RUT (isolated rat uterus): 5.5 | GUINEA PIG ILEUM KAL (pA2) (guinea pig ileum): 6.7 | GUINEA PIG ILEUM MK--BK (pA2) (guinea pig ileum): 6.4 | GUINEA PIG ILEUM BK (pA2) [3]: 6.1

Further lines, results first:

% DESTRUCTION (kininases [2]): 0%
Compound: N=C(N)NCCC[C@H](NC(=O)[C@H](Cc1ccccc1)NC(=O)[C@@H]1CCCN1C(=O)[C@H](CO)NC(=O)[C@H](Cc1ccccc1)NC(=O)CNC(=O)[C@@H]1CCCN1C(=O)[C@@H]1CCCN1C(=O)[C@H](CCCNC(=N)N)NC(=O)[C@H](CCCCN)NC(=O)[C@@H](N)CCCCN)C(=O)O [Lys--Lys--BK]

% DESTRUCTION (kininases [2]): 92%
Compound: N=C(N)NCCC[C@@H](N)C(=O)N[C@@H](CCCNC(=N)N)C(=O)N1CCC[C@H]1C(=O)N1CCC[C@H]1C(=O)NCC(=O)N[C@@H](Cc1ccccc1)C(=O)N[C@@H](CO)C(=O)N1CCC[C@H]1C(=O)N[C@@H](Cc1ccccc1)C(=O)N[C@@H](CCCNC(=N)N)C(=O)O [DArg--BK] (H-[dR]RPPGFSPFR-OH)

% DESTRUCTION (kininases [2]): 89%
Compound: N=C(N)NCCC[C@H](NC(=O)[C@H](Cc1ccccc1)NC(=O)[C@@H]1CCCN1C(=O)[C@H](CO)NC(=O)[C@H](Cc1ccccc1)NC(=O)CNC(=O)[C@@H]1CCCN1C(=O)[C@@H]1CCCN1C(=O)[C@H](CCCNC(=N)N)NC(=O)[C@H](N)CCCCN)C(=O)O [DLys--BK]

% DESTRUCTION (kininases [2]): 95%
Compound: NCCCC[C@H](N)C(=O)N[C@@H](CCCN=C(N)N)C(=O)N1CCC[C@H]1C(=O)N1CCC[C@H]1C(=O)NCC(=O)N[C@@H](Cc1ccccc1)C(=O)N[C@@H](CO)C(=O)N1CCC[C@H]1C(=O)N[C@@H](Cc1ccccc1)C(=O)N[C@@H](CCCN=C(N)N)C(=O)O [Lys--BK]
